This is an account of results in patent US11524966B1 (Valo Early Discovery, Inc., priority 2017, dated 2022).

pIC50: −log10 of the molar value.

For orientation: pIC50 means the negative decadic logarithm of the IC50, by convention in mol/L.

The target of this test is T1, USP28 (His-tagged USP28-FL-mammalian) (Homo sapiens, UniProt Q96RU2).
T1 construct: Expression of USP28 (1-1077)-TEV-6*His (pTT5 vector); made in house; host or cells: Expi293f cells (pTT5 vector)
T1 sequence (Q96RU2 1-1077): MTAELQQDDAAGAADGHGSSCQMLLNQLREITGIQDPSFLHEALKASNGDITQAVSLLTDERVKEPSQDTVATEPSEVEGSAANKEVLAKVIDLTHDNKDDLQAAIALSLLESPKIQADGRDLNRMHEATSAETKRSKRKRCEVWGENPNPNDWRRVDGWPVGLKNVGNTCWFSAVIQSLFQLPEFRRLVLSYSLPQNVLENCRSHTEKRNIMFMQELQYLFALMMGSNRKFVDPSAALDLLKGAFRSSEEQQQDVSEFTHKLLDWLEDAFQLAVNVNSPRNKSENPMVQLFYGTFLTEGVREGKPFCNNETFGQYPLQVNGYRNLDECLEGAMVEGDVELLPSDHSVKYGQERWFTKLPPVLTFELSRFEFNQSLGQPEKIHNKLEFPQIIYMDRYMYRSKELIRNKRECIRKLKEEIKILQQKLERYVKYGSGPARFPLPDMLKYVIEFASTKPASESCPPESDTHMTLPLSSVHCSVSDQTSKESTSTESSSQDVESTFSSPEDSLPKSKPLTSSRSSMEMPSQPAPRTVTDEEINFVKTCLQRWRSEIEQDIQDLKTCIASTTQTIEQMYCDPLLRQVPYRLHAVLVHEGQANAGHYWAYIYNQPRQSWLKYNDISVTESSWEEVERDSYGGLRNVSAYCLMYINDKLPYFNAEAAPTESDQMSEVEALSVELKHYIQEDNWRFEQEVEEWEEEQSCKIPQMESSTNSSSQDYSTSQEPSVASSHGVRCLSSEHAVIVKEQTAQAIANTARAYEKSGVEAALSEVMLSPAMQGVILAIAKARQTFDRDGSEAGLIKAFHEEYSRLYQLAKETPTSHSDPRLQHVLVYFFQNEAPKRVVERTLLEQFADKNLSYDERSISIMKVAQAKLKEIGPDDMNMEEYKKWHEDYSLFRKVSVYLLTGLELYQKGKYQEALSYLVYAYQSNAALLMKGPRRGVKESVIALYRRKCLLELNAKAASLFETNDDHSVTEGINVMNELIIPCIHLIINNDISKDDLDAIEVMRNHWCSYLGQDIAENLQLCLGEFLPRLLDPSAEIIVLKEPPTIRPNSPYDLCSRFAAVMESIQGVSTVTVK
Briefly: Ubiquitin-Rhodamine 110 Assay for USP28 Activity, Example A-1(a). The format is biochemical. The conditions noted are these: Ubiquitin-Rhodamine 110 assay, Example A-1(a); read-out: USP28 A-1(a) IC50 range. In outline: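 IC50 from 4-parameter logistic fit of percent inhibition versus no-enzyme and DMSO controls; compounds 25 μM to 1.3 nM, 3-fold. Ub-Rh110 cleavage (25 nM, below Km) by […] mammalian-expressed USP28-FL-His ran 45 min at room temperature, stopped with 10 mM citric acid, read ex 485/em 535.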
As to `Cc1ccc2c(N)c(C(=O)N[C@H]3CCc4nc(N5C[C@H](OC6CCC6)[C@@H](N)C5)ccc4C3)sc2n1` [Example 285, 3-amino-N-[(6S)-2-[(3S,4S)-3-amino-4-cyclobutoxypyrrolidin-1-yl]-5,6,7,8-tetrahydroquinolin-6-yl]-6-methylthieno[2,3-b]pyridine-2-carboxamide], the pIC50 was 6.70 to 7.30. With `CO[C@@H]1CN(c2ccc3c(c2)OC[C@H](NC(=O)c2sc4nc(C)ccc4c2N)C3)[C@H](C)[C@H]1N` [Example 335, 3-amino-N-[(3R)-7-[(2R,3R,4R)-3-amino-4-methoxy-2-methylpyrrolidin-1-yl]-3,4-dihydro-2H-1-benzopyran-3-yl]-6-methylthieno[2,3-b]pyridine-2-carboxamide], the pIC50 is 7.30 to 9.00. For the compound `CO[C@]1(C)CN(c2ccc3c(n2)OC[C@H](NC(=O)c2sc4nc(C)ccc4c2N)C3)C[C@H]1N` [Example 326, 3-amino-N-[(3R)-7-[(3R,4R)-4-amino-3-methoxy-3-methylpyrrolidin-1-yl]-2H,3H,4H-pyrano[2,3-b]pyridin-3-yl]-6-methylthieno[2,3-b]pyridine-2-carboxamide], the pIC50 is 6.70 to 7.30.

For the compound `Cc1ccc2c(N)c(C(=O)N[C@H]3COc4cc(N5C[C@H](N)[C@]6(CCCO6)C5)ccc4C3)sc2n1` [Example 307, 3-amino-N-[(3R)-7-[(5S,9S)-9-amino-1-oxa-7-azaspiro[4.4]nonan-7-yl]-3,4-dihydro-2H-1-benzopyran-3-yl]-6-methylthieno[2,3-b]pyridine-2-carboxamide], the pIC50 is 7.30 to 9.00. In the case of `COC[C@@H]1CN(c2ccc3c(n2)CC[C@H](NC(=O)c2sc4nc(C)ccc4c2N)C3)C[C@H]1N` [Example 328, 3-amino-N-[(6S)-2-[(3S,4R)-3-amino-4-(methoxymethyl)pyrrolidin-1-yl]-5,6,7,8-tetrahydroquinolin-6-yl]-6-methylthieno[2,3-b]pyridine-2-carboxamide] it was 5.70 to 6.70.

As for `CO[C@H]1CCN(c2ccc3c(n2)CC[C@H](NC(=O)c2sc4nc(C)ccc4c2N)C3)C[C@@H]1N` (single isomer, unassigned) [Example 315], the pIC50 is 6.70 to 7.30. `COC[C@@H]1CN(c2nc3c(cc2F)C[C@@H](NC(=O)c2sc4nc(C)ccc4c2N)CC3)C[C@@H]1N` [Example 300, 3-amino-N-[(6S)-2-[(3R,4R)-3-amino-4-(methoxymethyl)pyrrolidin-1-yl]-3-fluoro-5,6,7,8-tetrahydroquinolin-6-yl]-6-methylthieno[2,3-b]pyridine-2-carboxamide]: the pIC50 was 5.70 to 6.70. In the case of `CO[C@@H]1CCN(c2ccc3c(n2)CC[C@H](NC(=O)c2sc4nc(C)ccc4c2N)C3)C[C@H]1N` (single isomer, unassigned) [Example 316] it was 6.70 to 7.30.
